The numbers were not newly measured in patent US20220354960A1, “IMMUNE CHECKPOINT BLOCKING BISPECIFIC MOLECULES” (THE SCRIPPS RESEARCH INSTITUTE, priority 2019, published 2022), which cites them from elsewhere.

This data set relates to melanoma. The conditions noted are these: for three-year survival of patients with melanoma: human, in vivo; for overall survival (>5 years): patients with melanoma.

As for “Ipilimumab: anti-cytotoxic T-lymphocyte antigen-4 (CTLA-4) antibody”, the “three-year survival of patients with melanoma” value is about 70% and the “overall survival (>5 years)” value is recorded as about 30%.
Consider “Pembrolizumab: anti-programmed cell death-1 (PD-1) antibody”, for which the “three-year survival of patients with melanoma” value is on record as about 70% and the “overall survival (>5 years)” value is given as about 30%.
